Experimental data as given in US20260272907A1, “Therapeutic Tyrosine Kinase Inhibitors for Multiple Sclerosis” (Principia Biopharma Inc., priority 2022, published 2026).

Tested on: patients with relapsing multiple sclerosis
Test: Phase 2b dose-finding study: adverse events (TEAEs, SAEs, AESIs), safety population
Conditions: for Adverse event: Accidental overdose / Adverse event: Alanine aminotransferase increased / Adverse event: Alopecia / Adverse event: Back pain / Adverse event: Gastroenteritis / Adverse event: Headache / Adverse event: Muscle spasticity / Adverse event: Nasopharyngitis / Adverse event: Oropharyngeal pain / Adverse event: Peripheral edema / Adverse event: Respiratory tract infection / Adverse event: Upper respiratory tract infection: 12 weeks treatment
[1] = BTKi 5 mg (n = 33), Weeks 1 to 12
[2] = BTKi 15 mg (N = 16), Weeks 1 to 4
[3] = BTKi 15 mg (n = 32), Weeks 1 to 12
[4] = BTKi 30 mg (N = 16), Weeks 1 to 4
[5] = BTKi 30 mg (n = 33), Weeks 1 to 12
[6] = BTKi 60 mg (N = 16), Weeks 1 to 4
[7] = BTKi 60 mg (n = 32), Weeks 1 to 12

C=CC(=O)N1CCC[C@@H](n2c(=O)n(-c3ccc(Oc4ccccc4)cc3)c3c(N)nccc32)C1 [the BTK inhibitor, (R)-1-(1-acryloylpiperidin-3-yl)-4-amino-3-(4-phenoxyphenyl)-1H-imidazo[4,5-c]pyridin-2(3H)-one]
5 (15.2) n (%): Any treatment-related AE [1]
0%: Adverse event: Accidental overdose (BTKi 15 mg (n = 32)) | Adverse event: Alanine aminotransferase increased (BTKi 15 mg (n = 32)) | Adverse event: Gastroenteritis (BTKi 15 mg (n = 32)) | Adverse event: Muscle spasticity (BTKi 15 mg (n = 32)) | Adverse event: Nasopharyngitis (BTKi 15 mg (n = 32)) | Adverse event: Oropharyngeal pain (BTKi 15 mg (n = 32)) | Adverse event: Peripheral edema (BTKi 15 mg (n = 32)) | Adverse event: Accidental overdose (BTKi 30 mg (n = 33)) | Adverse event: Alopecia (BTKi 30 mg (n = 33)) | Adverse event: Gastroenteritis (BTKi 30 mg (n = 33)) | Adverse event: Peripheral edema (BTKi 30 mg (n = 33)) | Adverse event: Back pain (BTKi 60 mg (n = 32))
18 (54.5) n (%): Any AE (4 weeks vs. placebo 12 weeks) [5]
0 n (%): Serious AE [1] | AE leading to death [3] | AE leading to study discontinuation [3] | Any AE leading to study treatment discontinuation [3] | Serious AE [3] | AE leading to death [5] | AE leading to study discontinuation [5] | Any AE leading to study treatment discontinuation [5] | Serious AE [5] | AE leading to death [7] | AE leading to study discontinuation [7]
2 (6%): Adverse event: Upper respiratory tract infection (BTKi 15 mg (n = 32)) | Adverse event: Back pain (BTKi 30 mg (n = 33)) | Adverse event: Gastroenteritis (BTKi 60 mg (n = 32)) | Adverse event: Muscle spasticity (BTKi 60 mg (n = 32)) | Adverse event: Peripheral edema (BTKi 60 mg (n = 32))
4 (12.1) n (%): Any treatment-related AE [5]
17 (53.1) n (%): Any AE (4 weeks vs. placebo 12 weeks) [3]
1 (3.1) n (%): Any treatment-related AE [3]
1 (3%): Adverse event: Alopecia (BTKi 15 mg (n = 32)) | Adverse event: Back pain (BTKi 15 mg (n = 32)) | Adverse event: Respiratory tract infection (BTKi 15 mg (n = 32)) | Adverse event: Alanine aminotransferase increased (BTKi 30 mg (n = 33)) | Adverse event: Headache (BTKi 30 mg (n = 33)) | Adverse event: Muscle spasticity (BTKi 30 mg (n = 33)) | Adverse event: Nasopharyngitis (BTKi 30 mg (n = 33)) | Adverse event: Oropharyngeal pain (BTKi 30 mg (n = 33)) | Adverse event: Respiratory tract infection (BTKi 30 mg (n = 33)) | Adverse event: Upper respiratory tract infection (BTKi 30 mg (n = 33)) | Adverse event: Alanine aminotransferase increased (BTKi 60 mg (n = 32)) | Adverse event: Alopecia (BTKi 60 mg (n = 32)) | Adverse event: Oropharyngeal pain (BTKi 60 mg (n = 32)) | Adverse event: Respiratory tract infection (BTKi 60 mg (n = 32)) | Adverse event: Upper respiratory tract infection (BTKi 60 mg (n = 32))
3 (9%): Adverse event: Headache (BTKi 15 mg (n = 32)) | Adverse event: Accidental overdose (BTKi 60 mg (n = 32)) | Adverse event: Nasopharyngitis (BTKi 60 mg (n = 32))
4 (13%): Adverse event: Headache (BTKi 60 mg (n = 32))
0: AE leading to death [2] | AE leading to study discontinuation [2] | Any AE leading to study treatment discontinuation [2] | Any treatment-related AE [2] | Serious AE [2] | AE leading to death [4] | AE leading to study discontinuation [4] | Any AE leading to study treatment discontinuation [4] | Any treatment-related AE [4] | Serious AE [4] | AE leading to death [6] | AE leading to study discontinuation [6] | Any AE leading to study treatment discontinuation [6] | Serious AE [6]
